Test results reported in publication PMC5031696, “Synthesis, Biodistribution and In vitro Evaluation of Brain Permeable High Affinity Type 2 Cannabinoid Receptor Agonists [^11C]MA2 and [^18F]MA3” (Frontiers in Neuroscience, 2016).

Experiments:
hCB1 [1] = molecular target: T1, hCB1 (Homo sapiens, UniProt P21554); test: radioligand binding assay with [^3H]CP55940, hCB1; settings: for Ki: competition with [^3H]CP55940, read-out: hCB1 Ki; for Ki ratio hCB1/hCB2: selectivity
T1 construct: host or cells: CHO-K1 beta-arrestin cells
Procedure: (§1) CHO-K1 beta-arrestin cells (DiscoveRx, Fremont, CA) expressing hCB2, mouse CB2 (mCB2), and human CB1 (hCB1) were cultured in F-12 Nutrient Mixture (HAM) supplemented with 10% fetal bovine serum (FBS), 300 μg/mL hygromycin and 800 μg/mL geneticin (G418). Cells were incubated in a humidified atmosphere at 37°C with 5% CO2.
(§2) Stably transfected cells were treated for 24 h with 5 mM butyrate in growth medium before harvesting, followed by homogenization in 15 mmol/L Hepes, 0.3 mmol/L EDTA, 1 mmol/L EGTA, 2 mmol/L MgCl2, complete EDTA-free protease inhibitor (Roche Applied Science, Rotkreuz, Switzerland), pH 7.4 using a glass potter and centrifugation at 47,800 g at 4°C for 30 min. The pellet was then rehomogenized twice in the same buffer and centrifuged (47,800 g, 4°C, 30 min). The final pellet was then resuspended in 75 mmol/L Tris, 0.3 mmol/L EDTA, 1 mmol/L EGTA, 12.5 mmol/L MgCl2, 250 mmol/L sucrose, pH 7.4 at a protein concentration of 1 to 3 mg/mL, aliquoted, frozen on dry ice and stored at −80°C. Saturation binding was performed with 0.05 to 2.6 nM [^3H]CP55940 (Perkin Elmer) and 1.0 μg of membrane protein. CP55940 (10 μM) was used to define non-specific binding. More than 95% of the total binding signal was specific. Assay buffer consisted of 50 mmol/L Tris-HCl, 5 mmol/L MgCl2, 2.5 mmol/L EGTA, and 0.1% fatty acid-free BSA, pH 7.4. Assays were initiated by addition of membranes in a final volume of 250 μL/well. Mixtures were incubated for 3 h at room temperature and then vacuum filtered and rinsed with wash buffer (50 mmol/L Tris-HCl, 5 mmol/L MgCl2, 2.5 mmol/L EGTA, and 0.5% fatty acid-free BSA, pH 7.4) on a Filtermate cell harvester through Packard GF/B filters presoaked in 0.3% polyethylenimine.
(§3) For competition binding, membrane preparations were incubated with 0.3 nM [^3H]CP55940 in the presence or absence of increasing concentrations of ligands for 60 min at 30°C in a final volume of 0.2 mL of 50 mmol/L Tris-HCl, 5 mmol/L MgCl2, 2.5 mmol/L EGTA, 0.1% fatty acid-free BSA, and 1% DMSO, pH 7.4, buffer, gently shaking. Non-specific binding was defined with 10 μM CP55940. All binding reactions were terminated by vacuum filtration onto 0.5% polyethylenimine presoaked GF/B filter plates (Packard) followed by seven brief washes with 2 mL of ice-cold binding buffer containing 0.5% fatty acid-free BSA. Plates were dried at 50°C for 1 h and liquid scintillation counting was used to determine bound radiolabel. IC50 values and Hill slopes were determined by a four parameter logistic model using ActivityBase (ID Business Solution, Guilford, UK). pKi values were determined by the generalized Cheng-Prusoff equation (Yung-Chi and Prusoff, [1973]).

mCB2 [2] = molecular target: T2, mCB2 (Mus musculus, UniProt P47936); test: radioligand binding assay with [^3H]CP55940, mCB2; settings: competition with [^3H]CP55940; read-out: mCB2 Ki
T2 construct: host or cells: CHO-K1 beta-arrestin cells
Procedure: as §1, §2, §3

hCB2 [3] = molecular target: T3, hCB2 (Homo sapiens, UniProt P34972); test: functional cAMP assay, hCB2; type: cell-based; settings: for hCB2 cAMP % eff (efficacy) / EC50: CHO-K1 cells expressing hCB2; for EC50: read-out: hCB2 cAMP EC50; for functional behaviour in cAMP assay: hCB2
T3 construct: host or cells: CHO-K1 beta-arrestin cells
Procedure: as §1
(§4) cAMP was measured using cAMP-Nano-TRF detection kit (Roche Diagnostics, Penzberg, Germany). Cells were seeded 17–24 h prior to the experiment 3 × 10^4 cells per well in a black 96-well plate with flat clear bottom (Corning, Wiesbaden, Germany) in growth medium and incubated in 5% CO2 at 37°C in a humidified incubator. The growth medium was exchanged with Krebs Ringer bicarbonate buffer with 1 mmol/L 3-isobutyl-1-methylxanthine (IBMX), 0.1% fatty acid-free bovine serum albumin (BSA) and incubated at 30°C for 60 min. Agonist was added to a final assay volume of 100 μL and the mixture was incubated for 30 min at 30°C. The assay was stopped by the addition of 50 μL 3x lysis reagent and shaken for 2 h at room temperature. The time-resolved energy transfer was measured using an LF502 Nanoscan FLT (IOM, Berlin, Germany), equipped with a laser as excitation source. cAMP content was determined from the function of a standard curve spanning from 10 to 0.13 nmol/L cAMP.

hCB2 [4] = molecular target: T3, hCB2; test: radioligand binding assay with [^3H]CP55940, hCB2; settings: for Ki: competition with [^3H]CP55940, read-out: hCB2 Ki
Procedure: as §1, §2, §3

mCB2 [5] = molecular target: T2, mCB2; test: functional cAMP assay, mCB2; type: cell-based; settings: CHO-K1 cells expressing mCB2; for EC50: read-out: mCB2 cAMP EC50
Procedure: as §1, §4

hCB1 [6] = molecular target: T1, hCB1; test: functional cAMP assay, hCB1 versus hCB2; type: cell-based; settings: cAMP assays
Procedure: as §1, §4

T3 sequence (P34972 whole entry): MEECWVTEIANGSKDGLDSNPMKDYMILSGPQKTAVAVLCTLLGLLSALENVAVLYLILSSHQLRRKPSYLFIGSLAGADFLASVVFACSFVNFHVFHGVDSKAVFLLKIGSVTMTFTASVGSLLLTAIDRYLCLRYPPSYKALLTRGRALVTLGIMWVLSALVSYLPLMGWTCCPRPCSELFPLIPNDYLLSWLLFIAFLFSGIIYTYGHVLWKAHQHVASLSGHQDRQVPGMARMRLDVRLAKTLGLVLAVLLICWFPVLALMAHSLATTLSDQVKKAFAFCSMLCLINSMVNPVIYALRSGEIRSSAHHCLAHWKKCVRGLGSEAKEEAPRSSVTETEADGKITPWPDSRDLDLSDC
T2 sequence (P47936 whole entry): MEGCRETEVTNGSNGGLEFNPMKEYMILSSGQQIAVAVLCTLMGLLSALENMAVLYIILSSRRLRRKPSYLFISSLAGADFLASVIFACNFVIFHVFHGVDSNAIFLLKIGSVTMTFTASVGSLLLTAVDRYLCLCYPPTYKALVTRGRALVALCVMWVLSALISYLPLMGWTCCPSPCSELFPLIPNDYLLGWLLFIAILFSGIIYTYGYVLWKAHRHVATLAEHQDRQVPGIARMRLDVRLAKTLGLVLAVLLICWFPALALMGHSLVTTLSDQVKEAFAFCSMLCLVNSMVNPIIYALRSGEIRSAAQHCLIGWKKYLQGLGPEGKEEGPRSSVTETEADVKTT
T1 sequence (P21554 whole entry): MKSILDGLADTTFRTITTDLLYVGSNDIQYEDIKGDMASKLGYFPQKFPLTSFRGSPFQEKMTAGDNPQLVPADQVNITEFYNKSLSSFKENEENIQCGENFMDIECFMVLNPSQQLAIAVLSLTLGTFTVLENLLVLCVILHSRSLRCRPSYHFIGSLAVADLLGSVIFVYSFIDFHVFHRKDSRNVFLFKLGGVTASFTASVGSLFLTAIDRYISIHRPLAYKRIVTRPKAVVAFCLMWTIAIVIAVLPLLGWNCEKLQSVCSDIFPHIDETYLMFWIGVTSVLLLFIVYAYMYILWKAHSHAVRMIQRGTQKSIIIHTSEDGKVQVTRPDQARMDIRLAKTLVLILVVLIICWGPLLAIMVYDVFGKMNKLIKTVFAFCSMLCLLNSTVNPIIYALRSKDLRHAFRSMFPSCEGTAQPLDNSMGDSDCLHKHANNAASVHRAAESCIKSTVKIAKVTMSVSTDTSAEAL

| SMILES | Ki (hCB1 [1]) | Ki ratio hCB1/hCB2 (hCB1 [1]) | Ki (mCB2 [2]) | hCB2 cAMP % eff (efficacy) (hCB2 [3]) | EC50 (hCB2 [3]) | functional behaviour in cAMP assay (hCB2 [3]) | Ki (hCB2 [4]) | species difference in binding affinity (hCB2 [4]; hCB2 versus mCB2) | mCB2 cAMP % eff (efficacy) (mCB2 [5]) | EC50 (mCB2 [5]) | EC50 ratio hCB1/hCB2 (hCB1 [6]) |
| --- | --- | --- | --- | --- | --- | --- | --- | --- | --- | --- | --- |
| CCCCOc1c(OC)ccc2cc(C(=O)NC3CCCCC3)c(=O)[nH]c12 [NE40, reference compound] | 1040 nM | 241 | 2 nM | −178% | 8 nM | inverse agonist | 4 nM | no species difference | −128% | 11 nM | > 1250 |
| Fc1ccc(-c2noc(CCCNc3cnc4ccc(OC(F)(F)F)cc4c3)n2)c(Cl)c1 [Compound 12, reference compound] | 568 nM | 202 | 4.6 nM | 100% | 0.15 nM | agonists | 2.8 nM |  | 100% | 0.18 nM | 1300 |
